± gives the expanded uncertainty stated by the source.
Settings: Crystal, Rate of evaporation

CC(C)(C)C(=O)/C=C(\[O-])C(C)(C)C.CC(C)(C)C(=O)/C=C(\[O-])C(C)(C)C.[Cu+2] [bis(2,2,6,6-tetramethyl-3,5-heptanedionato)copper(II)]
Settings | vapor or sublimation pressure [kPa]
375 K | 4e-05 ± 4e-06
385 K | 7.2e-05 ± 7e-06
395 K | 0.000151 ± 1.5e-05
404 K | 0.000343 ± 3.4e-05
415 K | 0.00072 ± 7.2e-05
425 K | 0.001456 ± 0.00015
435 K | 0.002373 ± 0.00024

Reference: the NIST ThermoML archive (doi:10.1016/j.tca.2009.05.014)
